{"source": "patent US20030195183A1", "about": "“Method for correcting immune system of live body” (priority 2000, published 2003)", "key": {"[1]": {"tested_on": "humoral immune response to ram erythrocytes", "test": "titers of hemagglutinins after simultaneous administration of preparation and RE (inductive phase)", "format": "in vivo, mice"}, "[2]": {"tested_on": "humoral immune response to ram erythrocytes", "test": "titers of hemagglutinins, preparation five days after immunization with RE (productive phase)", "format": "in vivo, mice"}, "[3]": {"test": "anaphylactogenic activity", "format": "in vivo, guinea pigs", "experimental": "Allergenic effects of the preparation were evaluated on female guinea pigs weighing 250 to 300 g supplied by RF AMS Central Brooder of Laboratory Animals. A total of 70 guinea pigs have been studied. Intraperitoneal and intradermal injections of the preparations were used.\nThe preparation under study was injected to three groups of guinea pigs in accordance with the following schedule: first 0.1-ml injection of various doses (1 μg, 10 μg and 100 μg) was made subcutaneously; second 0.1-ml injection of the preparation was made on the next day intramuscularly in the thigh; and the third 0.1-ml injection was made one day later. On day 21, the shocking injection of main pharmacological effect with single application was made."}, "[4]": {"test": "clinical case, treatment of duodenal ulcer", "format": "in vivo, human", "conditions": "Patient K", "experimental": "Apart from the studies on animals described above, clinical studies of immunocorrection activity of amino derivatives of 2,3-dihydrophthalazine-1,4-dione represented by sodium salt of 5-amino-2,3-dihydrophthalazine-1,4-dione in the treatment of various diseases on human, in particular, anti-inflammatory immunocorrecting activity in the treatment of ulcers, were carried out.\nConcomitant catarrhal bulbitis was present. The patient partly lost their working capacity due to this disease.\nTreatment: Periulceral injection of 100 mg of sodium salt of 5-amino-2,3-dihydrophthalazine-1,4-dione was made. One more injection of the preparation was made on the 7th day. The patient also received the preparation in Almagel suspension and, since the 7th day, in Maalox (in view of constipations). They were simultaneously treated with omeprazol in accordance with usual regimen and, since the 7th day, De-nol with trichopol."}, "[5]": {"conditions": "0.2 μg, Strain C57BL6 mice, 7 days"}, "[6]": {"conditions": "0.2 μg, Strain C57BL6 mice, 14 days"}, "[7]": {"conditions": "0.2 μg, Strain C57BL6 mice, 21 days"}, "[8]": {"conditions": "0.2 μg, Strain CBA mice, 7 days"}, "[9]": {"conditions": "0.2 μg, Strain CBA mice, 14 days"}, "[10]": {"conditions": "0.2 μg, Strain CBA mice, 21 days"}, "[11]": {"conditions": "2 μg, Strain C57BL6 mice, 7 days"}, "[12]": {"conditions": "2 μg, Strain C57BL6 mice, 14 days"}, "[13]": {"conditions": "2 μg, Strain C57BL6 mice, 21 days"}, "[14]": {"conditions": "20 μg, Strain C57BL6 mice, 7 days"}, "[15]": {"conditions": "20 μg, Strain C57BL6 mice, 14 days"}, "[16]": {"conditions": "20 μg, Strain C57BL6 mice, 21 days"}, "[17]": {"conditions": "20 μg, Strain CBA mice, 14 days"}, "[18]": {"conditions": "20 μg, Strain CBA mice, 21 days"}, "[19]": {"conditions": "200 μg, Strain C57BL6 mice, 7 days"}, "[20]": {"conditions": "200 μg, Strain C57BL6 mice, 14 days"}, "[21]": {"conditions": "200 μg, Strain C57BL6 mice, 21 days"}, "[22]": {"conditions": "200 μg, Strain CBA mice, 7 days"}, "[23]": {"conditions": "200 μg, Strain CBA mice, 14 days"}, "[24]": {"conditions": "200 μg, Strain CBA mice, 21 days"}, "[25]": {"conditions": "sensitization 10 μg, shocking injection 100 μg, 10 animals"}, "[26]": {"conditions": "sensitization 100 μg, shocking injection 100 μg, 10 animals"}}, "note": "Entries after “also recorded” stand apart in the source; their conditions may differ.", "data": [{"smiles": "Nc1cccc2c(=O)[nH][nH]c(=O)c12.[Na]", "note": "[sodium salt of 5-amino-2,3-dihydrophthalazine-1,4-dione]", "values": [{"measurement": "Titers of hemagglutinins", "setting": "[1]; [5]", "result": "59 ± 58"}, {"measurement": "Titers of hemagglutinins", "setting": "[1]; [6]", "result": "50 ± 48"}, {"measurement": "Titers of hemagglutinins", "setting": "[1]; [7]", "result": "266 ± 200"}, {"measurement": "Titers of hemagglutinins", "setting": "[1]; [8]", "result": "112 ± 106"}, {"measurement": "Titers of hemagglutinins", "setting": "[1]; [9]", "result": "168 ± 109"}, {"measurement": "Titers of hemagglutinins", "setting": "[1]; [10]", "result": "15 ± 13"}, {"measurement": "Titers of hemagglutinins", "setting": "[1]; [11]", "result": "154 ± 57"}, {"measurement": "Titers of hemagglutinins", "setting": "[1]; [12]", "result": "256 ± 0"}, {"measurement": "Titers of hemagglutinins", "setting": "[1]; [13]", "result": "24 ± 20"}, {"measurement": "Titers of hemagglutinins", "setting": "[1]; 2 μg, Strain CBA mice, 7 days", "result": "28 ± 26"}, {"measurement": "Titers of hemagglutinins", "setting": "[1]; 2 μg, Strain CBA mice, 14 days", "result": "154 ± 97"}, {"measurement": "Titers of hemagglutinins", "setting": "[1]; 2 μg, Strain CBA mice, 21 days", "result": "10 ± 8"}, {"measurement": "Titers of hemagglutinins", "setting": "[1]; [14]", "result": "91 ± 64"}, {"measurement": "Titers of hemagglutinins", "setting": "[1]; [15]", "result": "512 ± 0"}, {"measurement": "Titers of hemagglutinins", "setting": "[1]; [16]", "result": "560 ± 160"}, {"measurement": "Titers of hemagglutinins", "setting": "[1]; 20 μg, Strain CBA mice, 7 days", "result": "96 ± 37"}, {"measurement": "Titers of hemagglutinins", "setting": "[1]; [17]", "result": "256 ± 0"}, {"measurement": "Titers of hemagglutinins", "setting": "[1]; [18]", "result": "83 ± 70"}, {"measurement": "Titers of hemagglutinins", "setting": "[1]; [19]", "result": "512 ± 0"}, {"measurement": "Titers of hemagglutinins", "setting": "[1]; [20]", "result": "44 ± 42"}, {"measurement": "Titers of hemagglutinins", "setting": "[1]; [21]", "result": "160 ± 138"}, {"measurement": "Titers of hemagglutinins", "setting": "[1]; [22]", "result": "35 ± 33"}, {"measurement": "Titers of hemagglutinins", "setting": "[1]; [23]", "result": "75 ± 59"}, {"measurement": "Titers of hemagglutinins", "setting": "[1]; [24]", "result": "46 ± 32"}, {"measurement": "titers of hemagglutinins (trend)", "setting": "[1]; Strain C57BL6 animals of low reaction, 21st day, 0.2 or 20 μg per mouse", "result": "tendency to increase"}, {"measurement": "Titers of hemagglutinins", "setting": "[2]; [5]", "result": 0}, {"measurement": "Titers of hemagglutinins", "setting": "[2]; [6]", "result": "2 ± 0"}, {"measurement": "Titers of hemagglutinins", "setting": "[2]; [7]", "result": "35 ± 10"}, {"measurement": "Titers of hemagglutinins", "setting": "[2]; [8]", "result": 0}, {"measurement": "Titers of hemagglutinins", "setting": "[2]; [9]", "result": "9 ± 7"}, {"measurement": "Titers of hemagglutinins", "setting": "[2]; [10]", "result": 0}, {"measurement": "Titers of hemagglutinins", "setting": "[2]; [11]", "result": "13 ± 11"}, {"measurement": "Titers of hemagglutinins", "setting": "[2]; [12]", "result": "54 ± 50"}, {"measurement": "Titers of hemagglutinins", "setting": "[2]; [13]", "result": "226 ± 201"}, {"measurement": "Titers of hemagglutinins", "setting": "[2]; 2 μg, Strain CBA mice, 7 days", "result": "10 ± 8"}, {"measurement": "Titers of hemagglutinins", "setting": "[2]; 2 μg, Strain CBA mice, 14 days", "result": "173 ± 110"}, {"measurement": "Titers of hemagglutinins", "setting": "[2]; 2 μg, Strain CBA mice, 21 days", "result": "22 ± 10"}, {"measurement": "Titers of hemagglutinins", "setting": "[2]; [14]", "result": "26 ± 19"}, {"measurement": "Titers of hemagglutinins", "setting": "[2]; [15]", "result": "256 ± 0"}, {"measurement": "Titers of hemagglutinins", "setting": "[2]; [16]", "result": "304 ± 105"}, {"measurement": "Titers of hemagglutinins", "setting": "[2]; 20 μg, Strain CBA mice, 7 days", "result": 0}, {"measurement": "Titers of hemagglutinins", "setting": "[2]; [17]", "result": "236 ± 0"}, {"measurement": "Titers of hemagglutinins", "setting": "[2]; [18]", "result": "23 ± 10"}, {"measurement": "Titers of hemagglutinins", "setting": "[2]; [19]", "result": 0}, {"measurement": "Titers of hemagglutinins", "setting": "[2]; [20]", "result": "96 ± 42"}, {"measurement": "Titers of hemagglutinins", "setting": "[2]; [21]", "result": "120 ± 95"}, {"measurement": "Titers of hemagglutinins", "setting": "[2]; [22]", "result": "28 ± 13"}, {"measurement": "Titers of hemagglutinins", "setting": "[2]; [23]", "result": "158 ± 120"}, {"measurement": "Titers of hemagglutinins", "setting": "[2]; [24]", "result": "47 ± 30"}, {"measurement": "effect on productive phase of immune response", "setting": "[2]; all doses, Strain CBA mice of high reaction", "result": "suppressive effect"}, {"measurement": "level (titers) of hemagglutinins", "setting": "[2]; low reaction Strain C57BL6 mice, 21st day", "result": "tendency to increase; also recorded: significant increase"}, {"measurement": "production of antibodies", "setting": "[2]; wide range of doses, Strain CBA mice, 7th and 14th days after immunization", "result": "inhibition"}, {"measurement": "expression of anaphylactic activity", "setting": "[3]; demonstrated only for high doses", "result": "very weak"}, {"measurement": "Number of animals with expression of anaphylactic shock −", "setting": "[3]; sensitization 1.0 μg, shocking injection 100 μg, 10 animals", "result": 10}, {"measurement": "Weigl's index", "setting": "[3]; sensitization 10 μg, shocking injection 100 μg", "result": 0.2}, {"measurement": "Number of animals with expression of anaphylactic shock +", "setting": "[3]; [25]", "result": 2}, {"measurement": "Number of animals with expression of anaphylactic shock −", "setting": "[3]; [25]", "result": 7}, {"measurement": "Weigl's index", "setting": "[3]; sensitization 100 μg, shocking injection 100 μg", "result": 0.3}, {"measurement": "Number of animals with expression of anaphylactic shock +", "setting": "[3]; [26]", "result": 1}, {"measurement": "Number of animals with expression of anaphylactic shock ++", "setting": "[3]; [26]", "result": 1}, {"measurement": "Number of animals with expression of anaphylactic shock −", "setting": "[3]; [26]", "result": 5}, {"measurement": "pain", "setting": "[4]; 2nd day of treatment, with omeprazol and antacids", "result": "Significant weakening"}, {"measurement": "pain", "setting": "[4]; 7th day", "result": "completely disappeared"}, {"measurement": "decrease in ulcer dimensions", "setting": "[4]; by the 7th day", "result": "⅓"}, {"measurement": "decrease in dimensions of ulcerous defect", "setting": "[4]; by the 15th day of treatment", "result": "2/3"}, {"measurement": "scarring of ulcer", "setting": "[4]; by the 21st day, total of 1,000 mg", "result": "completely scarred"}]}]}
